Assays:
Type in all cases: cell-based
[1] = test system: Haemophilus influenzae Q1; assay: conventional MIC assay, Haemophilus influenzae Q1; conditions: against Haemophilus influenzae Q1
Method: (§1) Compounds of the present invention were assessed for anti-bacterial activity in a conventional MIC assay against a range of pathogenic organisms.

[2] = test system: Staphylococcus aureus Oxford; assay: conventional MIC assay, Staphylococcus aureus Oxford; conditions: against Staphylococcus aureus Oxford
Method: as §1

[3] = test system: Streptococcus pneumoniae 1629; assay: conventional MIC assay, Streptococcus pneumoniae 1629; conditions: against Streptococcus pneumoniae 1629
Method: as §1

[4] = test system: Moraxella catarrhalis 1502; assay: conventional MIC assay, Moraxella catarrhalis 1502; conditions: against Moraxella catarrhalis 1502
Method: as §1

Measured: MIC

C=C[C@]1(C)C[C@@H](OC(=O)NC(=O)O[C@H]2COC[C@H]2OC(N)=O)[C@]2(C)[C@H](C)CC[C@]3(CCC(=O)[C@H]32)[C@@H](C)[C@@H]1O (racemic) [Example 118, Mutilin 14-[N-(cis-4-carbamoyloxytetrahydrofuran-3-yloxycarbonyl)]carbamate]
≤ 4 µg/mL: all assays above

C=C[C@]1(C)C[C@@H](OC(=O)NC(=O)OCc2ncc(C(N)=O)c(N)n2)[C@]2(C)[C@H](C)CC[C@]3(CCC(=O)[C@H]32)[C@@H](C)[C@@H]1O [Example 116, Mutilin 14-[N-(4-amino-5-carboxamidopyrimidin-2-ylmethoxycarbonyl)]carbamate]
≤ 4 µg/mL: all assays above

C=C[C@]1(C)C[C@@H](OC(=O)NC(=O)OCS(C)(=O)=O)[C@]2(C)[C@H](C)CC[C@]3(CCC(=O)[C@H]32)[C@@H](C)[C@@H]1O [Example 117, Mutilin 14-[N-(methylsulfonylmethoxycarbonyl)]carbamate]
≤ 4 µg/mL: all assays above

C=C[C@]1(C)C[C@@H](OC(=O)NC(=O)OCc2cnc(N)c(C(N)=O)n2)[C@]2(C)[C@H](C)CC[C@]3(CCC(=O)[C@H]32)[C@@H](C)[C@@H]1O [Example 119]
≤ 4 µg/mL: all assays above

C=C[C@]1(C)C[C@@H](OC(=O)NC(=O)OCCN2CCN(C=O)CC2)[C@]2(C)[C@H](C)CC[C@]3(CCC(=O)[C@H]32)[C@@H](C)[C@@H]1O [Example 120, Mutilin 14-[N-(2-(4-formylpiperazin-1-yl)ethyloxycarbonyl)]carbamate]
≤ 4 µg/mL: all assays above

C=C[C@]1(C)C[C@@H](OC(=O)NC(=O)OCCN2CCN(S(N)(=O)=O)CC2)[C@]2(C)[C@H](C)CC[C@]3(CCC(=O)[C@H]32)[C@@H](C)[C@@H]1O [Example 121]
≤ 4 µg/mL: all assays above

C=C[C@]1(C)C[C@@H](OC(=O)NC(=O)O[C@@H]2CO[C@H]3[C@@H]2OC[C@@H]3N)[C@]2(C)[C@H](C)CC[C@]3(CCC(=O)[C@H]32)[C@@H](C)[C@@H]1O [Example 122, Mutilin 14-[N-(((3R,3aR,6S,6aR)-6-amino-hexahydrofuro[3,2-b]furan-3-yl)oxycarbonyl)]carbamate]
≤ 4 µg/mL: all assays above

C=C[C@]1(C)C[C@@H](OC(=O)NC(=O)O[C@@H]2CCN(CC#N)C2)[C@]2(C)[C@H](C)CC[C@]3(CCC(=O)[C@H]32)[C@@H](C)[C@@H]1O [Example 123, Mutilin 14-[N-(1-cyanomethylpyrrolidin-3-(R)-yloxycarbonyl)]carbamate]
≤ 4 µg/mL: all assays above

C=C[C@]1(C)C[C@@H](OC(=O)NC(=O)O[C@H]2CN[C@H](C#N)C2)[C@]2(C)[C@H](C)CC[C@]3(CCC(=O)[C@H]32)[C@@H](C)[C@@H]1O [Example 126, Mutilin 14-[N-(5-(S)-cyanopyrrolidin-3-(R)-yloxycarbonyl)]carbamate]
≤ 4 µg/mL: all assays above

C=C[C@]1(C)C[C@@H](OC(=O)NC(=O)OC2CN(CC(N)=O)C2)[C@]2(C)[C@H](C)CC[C@]3(CCC(=O)[C@H]32)[C@@H](C)[C@@H]1O [Example 128, Mutilin 14-[N-(1-carbamoylmethylazetidin-3-yloxycarbonyl)]-carbamate]
≤ 4 µg/mL: all assays above

C=C[C@]1(C)C[C@@H](OC(=O)NC(=O)OC2CN(CC#N)C2)[C@]2(C)[C@H](C)CC[C@]3(CCC(=O)[C@H]32)[C@@H](C)[C@@H]1O [Example 129, Mutilin 14-[N-(1-cyanomethylazetidin-3-yloxycarbonyl)]-carbamate]
≤ 4 µg/mL: all assays above

C=C[C@]1(C)C[C@@H](OC(=O)NC(=O)OC2CN(N)C2)[C@]2(C)[C@H](C)CC[C@]3(CCC(=O)[C@H]32)[C@@H](C)[C@@H]1O [Example 130, Mutilin 14-[N-(1-aminoazetidin-3-yloxycarbonyl)]-carbamate]
≤ 4 µg/mL: all assays above
